# From patent US20230346817A1, “COMPOSITION AND USE OF SGLT-2 INHIBITOR AND ANGIOTENSIN RECEPTOR BLOCKERS” (Beijing Creatron Institute of Pharmaceutical Research Co. …, priority 2020, published 2023)
# Experiment: Related substances of active ingredient A, samples placed at 50° C. for 10 days
# Type: physicochemical
# Details: mixed powders
# Protocol: The raw and auxiliary materials were weighed based on the formulation amount and mixed well. The mixed powder of each example was wrapped separately in a clean weighing paper, sealed in an aluminum foil bag, and placed at 50° C. for 10 days. Samples were then taken, determined for related substances and compared with the comparative example.
smiles,measurement,value
"CCOc1ccc(Cc2cc([C@@H]3O[C@H](CO)[C@@H](O)[C@H](O)[C@H]3O)ccc2Cl)cc1 [active ingredient B, Dapagliflozin]",Related substances of active ingredient B after placed under the influencing factor,no increase in impurities
